Source: patent publication US20090246276A1, “Pharmaceutical Compositions” (priority 2008, published 2009)
Structures can show the parent of a compound that is named as a salt.

Assay: In-vitro dissolution, 900 ml medium (0.1N HCl, pH 4.5 acetate buffer, pH 6.8 or pH 7.5 phosphate buffer), USP Apparatus 1, 75 rpm, 37° C.
Type: physicochemical
Conditions: for % Released (Bi-layer Tablets): Example 16 coated bi-layer tablet; for % Released (Homogenous Tablets): Example 19 tablet
Method: The dissolution profile of the above pharmaceutical composition was determined under the dissolution conditions described below in Tables 1A, 1B, and 1C.

SMILES: CN(C)CCC[C@@]1(c2ccc(F)cc2)OCc2cc(C#N)ccc21 [Escitalopram Ox, escitalopram oxalate]
- % Released (Example 2 tablet, 0.1N HCl, 1 hr): 15%
- % Released (Example 2 tablet, 0.1N HCl, 2 hr): 35%
- % Released (Example 2 tablet, 0.1N HCl, 4 hr): 68%
- % Released (Example 2 tablet, 0.1N HCl, 8 hr): 99%
- % Released (Example 2 tablet, 0.1N HCl, 12 hr): 102%
- % Released (Example 2 tablet, 0.1N HCl, 16 hr): 101%
- % Released (Example 2 tablet, pH 4.5 acetate buffer, 1 hr): 15%
- % Released (Example 2 tablet, pH 4.5 acetate buffer, 2 hr): 35%
- % Released (Example 2 tablet, pH 4.5 acetate buffer, 4 hr): 64%
- % Released (Example 2 tablet, pH 4.5 acetate buffer, 8 hr): 97%
- % Released (Example 2 tablet, pH 4.5 acetate buffer, 12 hr): 101%
- % Released (Example 2 tablet, pH 4.5 acetate buffer, 16 hr): 100%
- % Released (Example 2 tablet, pH 6.8 phosphate buffer, 1 hr): 14%
- % Released (Example 2 tablet, pH 6.8 phosphate buffer, 2 hr): 33%
- % Released (Example 2 tablet, pH 6.8 phosphate buffer, 4 hr): 61%
- % Released (Example 2 tablet, pH 6.8 phosphate buffer, 8 hr): 92%
- % Released (Example 2 tablet, pH 6.8 phosphate buffer, 12 hr): 96%
- % Released (Example 2 tablet, pH 6.8 phosphate buffer, 16 hr): 96%
- % Released (Example 3 tablet, 0.1N HCl, 1 hr): 14%
- % Released (Example 3 tablet, 0.1N HCl, 2 hr): 32%
- % Released (Example 3 tablet, 0.1N HCl, 4 hr): 63%
- % Released (Example 3 tablet, 0.1N HCl, 8 hr): 102%
- % Released (Example 3 tablet, 0.1N HCl, 12 hr): 106%
- % Released (Example 3 tablet, 0.1N HCl, 16 hr): 105%
- % Released (Example 3 tablet, pH 4.5 acetate buffer, 1 hr): 13%
- % Released (Example 3 tablet, pH 4.5 acetate buffer, 2 hr): 29%
- % Released (Example 3 tablet, pH 4.5 acetate buffer, 4 hr): 57%
- % Released (Example 3 tablet, pH 4.5 acetate buffer, 8 hr): 96%
- % Released (Example 3 tablet, pH 4.5 acetate buffer, 12 hr): 102%
- % Released (Example 3 tablet, pH 4.5 acetate buffer, 16 hr): 101%
- % Released (Example 3 tablet, pH 6.8 phosphate buffer, 1 hr): 13%
- % Released (Example 3 tablet, pH 6.8 phosphate buffer, 2 hr): 29%
- % Released (Example 3 tablet, pH 6.8 phosphate buffer, 4 hr): 59%
- % Released (Example 3 tablet, pH 6.8 phosphate buffer, 8 hr): 99%
- % Released (Example 3 tablet, pH 6.8 phosphate buffer, 12 hr): 104%
- % Released (Example 3 tablet, pH 6.8 phosphate buffer, 16 hr): 104%
- % Released (Example 5 tablet, 0.1N HCl, 1 hr): 13%
- % Released (Example 5 tablet, 0.1N HCl, 2 hr): 26%
- % Released (Example 5 tablet, 0.1N HCl, 4 hr): 49%
- % Released (Example 5 tablet, 0.1N HCl, 8 hr): 81%
- % Released (Example 5 tablet, 0.1N HCl, 12 hr): 97%
- % Released (Example 5 tablet, 0.1N HCl, 16 hr): 98%
- % Released (Example 6 tablet, 0.1N HCl, 1 hr): 16%
- % Released (Example 6 tablet, 0.1N HCl, 2 hr): 34%
- % Released (Example 6 tablet, 0.1N HCl, 4 hr): 63%
- % Released (Example 6 tablet, 0.1N HCl, 8 hr): 97%
- % Released (Example 6 tablet, 0.1N HCl, 12 hr): 100%
- % Released (Example 6 tablet, 0.1N HCl, 16 hr): 100%
- % Released (Example 7 tablet, 0.1N HCl, 1 hr): 2%
- % Released (Example 7 tablet, 0.1N HCl, 2 hr): 7%
- % Released (Example 7 tablet, 0.1N HCl, 4 hr): 19%
- % Released (Example 7 tablet, 0.1N HCl, 8 hr): 44%
- % Released (Example 7 tablet, 0.1N HCl, 12 hr): 63%
- % Released (Example 7 tablet, 0.1N HCl, 16 hr): 77%
- % Released (Example 8 tablet, 0.1N HCl, 1 hr): 0%
- % Released (Example 8 tablet, 0.1N HCl, 2 hr): 1%
- % Released (Example 8 tablet, 0.1N HCl, 4 hr): 6%
- % Released (Example 8 tablet, 0.1N HCl, 8 hr): 19%
- % Released (Example 8 tablet, 0.1N HCl, 12 hr): 31%
- % Released (Example 8 tablet, 0.1N HCl, 16 hr): 40%
- % Released (Example 9 tablet, 0.1N HCl, 1 hr): 17%
- % Released (Example 9 tablet, 0.1N HCl, 2 hr): 48%
- % Released (Example 9 tablet, 0.1N HCl, 3 hr): 74%
- % Released (Example 9 tablet, 0.1N HCl, 4 hr): 93%
- % Released (Example 9 tablet, 0.1N HCl, 6 hr): 104%
- % Released (Example 9 tablet, 0.1N HCl, 8 hr): 103%
- % Released (Example 9 tablet, 0.1N HCl, 10 hr): 103%
- % Released (Example 10 tablet, 0.1N HCl, 1 hr): 14%
- % Released (Example 10 tablet, 0.1N HCl, 2 hr): 32%
- % Released (Example 10 tablet, 0.1N HCl, 4 hr): 59%
- % Released (Example 10 tablet, 0.1N HCl, 8 hr): 94%
- % Released (Example 10 tablet, 0.1N HCl, 12 hr): 99%
- % Released (Example 10 tablet, 0.1N HCl, 16 hr): 99%
- % Released (Example 11 tablet, 0.1N HCl, 1 hr): 16%
- % Released (Example 11 tablet, 0.1N HCl, 2 hr): 33%
- % Released (Example 11 tablet, 0.1N HCl, 4 hr): 56%
- % Released (Example 11 tablet, 0.1N HCl, 8 hr): 88%
- % Released (Example 11 tablet, 0.1N HCl, 12 hr): 97%
- % Released (Example 11 tablet, 0.1N HCl, 16 hr): 97%
- % Released (Example 12 tablet, 0.1N HCl, 1 hr): 8%
- % Released (Example 12 tablet, 0.1N HCl, 2 hr): 29%
- % Released (Example 12 tablet, 0.1N HCl, 3 hr): 47%
- % Released (Example 12 tablet, 0.1N HCl, 4 hr): 63%
- % Released (Example 12 tablet, 0.1N HCl, 5 hr): 77%
- % Released (Example 12 tablet, 0.1N HCl, 6 hr): 92%
- % Released (Example 12 tablet, 0.1N HCl, 7 hr): 98%
- % Released (Example 12 tablet, 0.1N HCl, 8 hr): 102%
- % Released (Example 13 tablet, 0.1N HCl, 1 hr): 9%
- % Released (Example 13 tablet, 0.1N HCl, 2 hr): 28%
- % Released (Example 13 tablet, 0.1N HCl, 3 hr): 45%
- % Released (Example 13 tablet, 0.1N HCl, 4 hr): 60%
- % Released (Example 13 tablet, 0.1N HCl, 6 hr): 83%
- % Released (Example 13 tablet, 0.1N HCl, 8 hr): 96%
- % Released (Example 13 tablet, 0.1N HCl, 10 hr): 99%
- % Released (Example 13 tablet, 0.1N HCl, 12 hr): 100%
- % Released (Example 13 tablet, 0.1N HCl, 16 hr): 100%
- % Released (Example 14 tablet, 0.1N HCl, 4 hr): 56%
- % Released (Example 14 tablet, 0.1N HCl, 6 hr): 76%
- % Released (Example 14 tablet, 0.1N HCl, 8 hr): 92%
- % Released (Example 14 tablet, 0.1N HCl, 10 hr): 99%
- % Released (Bi-layer Tablets) (0.1N HCl, 1 hr): 9.47%
- % Released (Bi-layer Tablets) (0.1N HCl, 2 hr): 27.06%
- % Released (Bi-layer Tablets) (0.1N HCl, 3 hr): 45.32%
- % Released (Bi-layer Tablets) (0.1N HCl, 4 hr): 60.81%
- % Released (Bi-layer Tablets) (0.1N HCl, 5 hr): 74.22%
- % Released (Bi-layer Tablets) (0.1N HCl, 6 hr): 83.48%
- % Released (Bi-layer Tablets) (0.1N HCl, 7 hr): 90.11%
- % Released (Bi-layer Tablets) (0.1N HCl, 8 hr): 93.47%
- % Released (Homogenous Tablets) (0.1N HCl, 1 hr): 16.65%
- % Released (Homogenous Tablets) (0.1N HCl, 2 hr): 40.32%
- % Released (Homogenous Tablets) (0.1N HCl, 3 hr): 59.61%
- % Released (Homogenous Tablets) (0.1N HCl, 4 hr): 75.31%
- % Released (Homogenous Tablets) (0.1N HCl, 5 hr): 86.68%
- % Released (Homogenous Tablets) (0.1N HCl, 6 hr): 94.46%
- % Released (Homogenous Tablets) (0.1N HCl, 7 hr): 99.30%
- % Released (Homogenous Tablets) (0.1N HCl, 8 hr): 101.01%
